Assay results: patent publication US4698352A, “4-oxo-1,4-dihydronicotinic acid derivatives, salts thereof, and antibacterial agents containing the same” (Toyama Chemical Co., Ltd., priority 1982, dated 1987)
Values after ≈ are worked out from the molar mass of the structure shown. Read-outs that look alike come from different tables or passages of the source.

Experiments:
Assay in all cases: Antibacterial activity (MIC), agar dilution
Type in all cases: cell-based
[1] = test system: Ent. cloacae IID977; conditions: Enterobacter cloacae, IID977, 20 h, Ent. cloacae IID977; 10^6 cells per ml; 37° C., 20 hours; read-out: MIC
Source text: (§1) The amount of bacteria inoculated was 10^4 cells per plate (10^6 cells per ml).

[2] = test system: Ps. aeruginosa S-68; conditions: Pseudomonas aeruginosa
Source text: as §1

[3] = test system: E. coli NIHJ JC-2; conditions: Escherichia coli, NIHJJC2, 20 h, E. coli NIHJ JC-2; 10^6 cells per ml; 37° C., 20 hours; read-out: MIC
Source text: as §1

[4] = test system: Pro. vulgaris GN3027; conditions: Proteus vulgaris, GN3027, 20 h, Pro. vulgaris GN3027; 10^6 cells per ml; 37° C., 20 hours; read-out: MIC
Source text: as §1

[5] = test system: St. aureus FDA209P; conditions: Staphylococcus aureus, FDA209P, 20 h
Source text: as §1

[6] = test system: E. coli TK-111; conditions: Escherichia coli, TK111, 20 h, E. coli TK-111; 10^6 cells per ml; 37° C., 20 hours; read-out: MIC
Source text: as §1

[7] = test system: Kl. pneumoniae Y-41; conditions: Klebsiella pneumoniae, Y41, 10^6 cells per ml, 37° C., 20 hours, read-out: MIC
Source text: as §1

[8] = test system: Pro. morganii T-216; conditions: Morganella morganii, 37° C.
Source text: as §1

[9] = test system: Pro. mirabilis T-111; conditions: Proteus mirabilis, 37° C.
Source text: as §1

[10] = test system: Kl. pneumoniae Y-50; conditions: Klebsiella pneumoniae, Y50, 20 h, 10^6 cells per ml, 37° C., read-out: MIC
Source text: as §1

[11] = test system: Ps. aeruginosa IFO3445; conditions: Pseudomonas aeruginosa; Ps. aeruginosa IFO3445; 10^6 cells per ml; 37° C., 20 hours; read-out: MIC
Source text: as §1

[12] = test system: E. coli GN5482**; conditions: Escherichia coli, 20 h; E. coli GN5482, cephalospolinase-producing; 10^6 cells per ml; read-out: MIC
Source text: as §1
(§2) ** Cephalospolinase-producing bacteria

[13] = test system: Ps. aeruginosa GN918**; conditions: Pseudomonas aeruginosa, Ps. aeruginosa GN918, cephalospolinase-producing, 10^6 cells per ml
Source text: as §1, §2

[14] = test system: Pro. vulgaris GN76**; conditions: Proteus vulgaris
Source text: as §1, §2

[15] = test system: Kl. pneumoniae Y-4*; conditions: Klebsiella pneumoniae, 20 h, Kl. pneumoniae Y-4, penicillinase-producing; 10^6 cells per ml; read-out: MIC
Source text: as §1
(§3) * Penicillinase-producing bacteria

[16] = test system: Ps. aeruginosa GN3379*; conditions: Pseudomonas aeruginosa, Ps. aeruginosa GN3379, penicillinase-producing, 10^6 cells per ml
Source text: as §1, §3

[17] = test system: E. coli TK-3*; conditions: Escherichia coli, 20 h, E. coli TK-3, penicillinase-producing; 10^6 cells per ml; read-out: MIC
Source text: as §1, §3

[18] = test system: St. aureus F-137*; conditions: Staphylococcus aureus, 20 h
Source text: as §1, §3

[19] = test system: Aci. antitratus A-6; conditions: 20 h, Aci. antitratus A-6; 10^6 cells per ml; 37° C., 20 hours; read-out: MIC
Source text: as §1

[20] = S68, Ps. aeruginosa S-68, 10^6 cells per ml, 37° C., 20 hours, read-out: MIC
[21] = T216, 10^6 cells per ml, 20 hours, read-out: MIC
[22] = T111, 10^6 cells per ml, 20 hours, read-out: MIC
[23] = 20 h, Pro. vulgaris GN76, cephalospolinase-producing, 10^6 cells per ml, read-out: MIC
[24] = St. aureus FDA209P, 10^6 cells per ml, 37° C., 20 hours, read-out: MIC
[25] = St. aureus F-137, penicillinase-producing, 10^6 cells per ml, read-out: MIC

Cc1cc(F)ccc1-n1cc(C(=O)O)c(=O)cc1C1CC=CCC1 (stereo not drawn)
MIC [1]: 12.5 µg/mL (≈ 38.2 µM)
MIC [2, 20]: 50 µg/mL (≈ 153 µM)
MIC [3]: 6.25 µg/mL (≈ 19.1 µM)
MIC [4]: 0.39 µg/mL (≈ 1.19 µM)
MIC [5]: 3.13 µg/mL (≈ 9.56 µM)
MIC [6]: 1.56 µg/mL (≈ 4.77 µM)
MIC [7]: 25 µg/mL (≈ 76.4 µM)
MIC [8, 21]: 12.5 µg/mL (≈ 38.2 µM)
MIC [9, 22]: 25 µg/mL (≈ 76.4 µM)
MIC [10]: 3.13 µg/mL (≈ 9.56 µM)
MIC [11]: 100 µg/mL (≈ 305 µM)
MIC [12]: 0.78 µg/mL (≈ 2.38 µM)
MIC ([13]; 20 h, read-out: MIC): 12.5 µg/mL (≈ 38.2 µM)
MIC [14, 23]: 6.25 µg/mL (≈ 19.1 µM)
MIC [15]: 25 µg/mL (≈ 76.4 µM)
MIC ([16]; 20 h, read-out: MIC): 100 µg/mL (≈ 305 µM)
MIC [17]: 12.5 µg/mL (≈ 38.2 µM)
MIC [18]: 3.13 µg/mL (≈ 9.56 µM)

O=C(O)c1cn(-c2ccc(O)cc2F)c(-c2ccc(N3CCCC3)cc2)cc1=O
MIC [19]: ≤ 0.05 µg/mL
MIC [1]: 0.78 µg/mL (≈ 1.98 µM)
MIC ([2]; S68, 20 h): 3.13 µg/mL (≈ 7.94 µM)
MIC [3]: 0.2 µg/mL (≈ 0.507 µM)
MIC [4]: 0.2 µg/mL (≈ 0.507 µM)
MIC [5, 24]: ≤ 0.05 µg/mL
MIC [6]: ≤ 0.05 µg/mL
MIC [7]: 1.56 µg/mL (≈ 3.96 µM)
MIC [8, 21]: 0.78 µg/mL (≈ 1.98 µM)
MIC [9, 22]: 0.78 µg/mL (≈ 1.98 µM)
MIC [10]: 0.39 µg/mL (≈ 0.989 µM)
MIC [11]: 6.25 µg/mL (≈ 15.8 µM)
MIC [12]: ≤ 0.05 µg/mL
MIC ([13]; 20 h, read-out: MIC): 0.78 µg/mL (≈ 1.98 µM)
MIC [14, 23]: 0.78 µg/mL (≈ 1.98 µM)
MIC [15]: 3.13 µg/mL (≈ 7.94 µM)
MIC ([16]; GN3379, 20 h): 3.13 µg/mL (≈ 7.94 µM)
MIC [18, 25]: ≤ 0.05 µg/mL

Cc1nc2ccc(-c3cc(=O)c(C(=O)O)cn3-c3ccc(O)cc3)cc2s1
MIC [1]: 1.56 µg/mL (≈ 4.12 µM)
MIC [2, 20]: 12.5 µg/mL (≈ 33 µM)
MIC [3]: 0.39 µg/mL (≈ 1.03 µM)
MIC [4]: 0.39 µg/mL (≈ 1.03 µM)
MIC [5, 24]: 0.39 µg/mL (≈ 1.03 µM)
MIC [6]: 0.2 µg/mL (≈ 0.529 µM)
MIC [7]: 3.13 µg/mL (≈ 8.27 µM)
MIC ([8]; T216, 20 h, 10^6 cells per ml): 3.13 µg/mL (≈ 8.27 µM)
MIC ([9]; T111, 20 h, 10^6 cells per ml): 3.13 µg/mL (≈ 8.27 µM)
MIC [10]: 0.39 µg/mL (≈ 1.03 µM)
MIC [11]: 25 µg/mL (≈ 66.1 µM)
MIC [12]: ≤ 0.05 µg/mL
MIC ([13]; 20 h, read-out: MIC): 1.56 µg/mL (≈ 4.12 µM)
MIC [14, 23]: 0.78 µg/mL (≈ 2.06 µM)
MIC [15]: 3.13 µg/mL (≈ 8.27 µM)
MIC ([16]; 20 h, read-out: MIC): 12.5 µg/mL (≈ 33 µM)
MIC [17]: 0.78 µg/mL (≈ 2.06 µM)
MIC [18, 25]: 0.39 µg/mL (≈ 1.03 µM)

Cc1nc2cc(-c3cc(=O)c(C(=O)O)cn3-c3ccc(O)cc3)ccc2s1
MIC [1]: 1.56 µg/mL (≈ 4.12 µM)
MIC [2, 20]: 6.25 µg/mL (≈ 16.5 µM)
MIC [3]: 0.39 µg/mL (≈ 1.03 µM)
MIC [4]: 0.39 µg/mL (≈ 1.03 µM)
MIC [5, 24]: 0.39 µg/mL (≈ 1.03 µM)
MIC [6]: 0.1 µg/mL (≈ 0.264 µM)
MIC [7]: 3.13 µg/mL (≈ 8.27 µM)
MIC ([8]; T216, 20 h, 10^6 cells per ml): 3.13 µg/mL (≈ 8.27 µM)
MIC ([9]; T111, 20 h, 10^6 cells per ml): 3.13 µg/mL (≈ 8.27 µM)
MIC [10]: 0.78 µg/mL (≈ 2.06 µM)
MIC [11]: 12.5 µg/mL (≈ 33 µM)
MIC [12]: ≤ 0.05 µg/mL
MIC ([13]; 20 h, read-out: MIC): 1.56 µg/mL (≈ 4.12 µM)
MIC [14, 23]: 1.56 µg/mL (≈ 4.12 µM)
MIC [15]: 3.13 µg/mL (≈ 8.27 µM)
MIC ([16]; 20 h, read-out: MIC): 6.25 µg/mL (≈ 16.5 µM)
MIC [17]: 0.78 µg/mL (≈ 2.06 µM)
MIC [18, 25]: 0.78 µg/mL (≈ 2.06 µM)

COCOC(=O)c1cn(-c2ccc(O)cc2)c(-c2ccc(N(C)C)cc2)cc1=O
MIC [1]: 1.56 µg/mL (≈ 3.96 µM)
MIC ([2]; S68, 20 h): 3.13 µg/mL (≈ 7.94 µM)
MIC [3]: 0.39 µg/mL (≈ 0.989 µM)
MIC [4]: 0.39 µg/mL (≈ 0.989 µM)
MIC [5, 24]: 0.39 µg/mL (≈ 0.989 µM)
MIC [6]: 0.2 µg/mL (≈ 0.507 µM)
MIC [7]: 3.13 µg/mL (≈ 7.94 µM)
MIC [8, 21]: 1.56 µg/mL (≈ 3.96 µM)
MIC ([9]; T111, 20 h, 10^6 cells per ml): 3.13 µg/mL (≈ 7.94 µM)
MIC [10]: 0.78 µg/mL (≈ 1.98 µM)
MIC [11]: 6.25 µg/mL (≈ 15.8 µM)
MIC [12]: ≤ 0.05 µg/mL
MIC ([13]; GN918, 20 h): 3.13 µg/mL (≈ 7.94 µM)
MIC ([14]; GN76, 20 h): 3.13 µg/mL (≈ 7.94 µM)
MIC [15]: 3.13 µg/mL (≈ 7.94 µM)
MIC ([16]; 20 h, read-out: MIC): 6.25 µg/mL (≈ 15.8 µM)
MIC [17]: 1.56 µg/mL (≈ 3.96 µM)
MIC [18, 25]: 0.39 µg/mL (≈ 0.989 µM)

O=C(O)c1cn(-c2ccc(O)cc2)c(-c2ccc3occc3c2)cc1=O
MIC [19]: 0.78 µg/mL (≈ 2.25 µM)
MIC [1]: 0.78 µg/mL (≈ 2.25 µM)
MIC [2, 20]: 6.25 µg/mL (≈ 18 µM)
MIC [3]: 0.39 µg/mL (≈ 1.12 µM)
MIC [4]: ≤ 0.05 µg/mL
MIC [5, 24]: 0.2 µg/mL (≈ 0.576 µM)
MIC [6]: 0.2 µg/mL (≈ 0.576 µM)
MIC [7]: 1.56 µg/mL (≈ 4.49 µM)
MIC [8, 21]: 0.78 µg/mL (≈ 2.25 µM)
MIC ([9]; T111, 20 h, 10^6 cells per ml): 3.13 µg/mL (≈ 9.01 µM)
MIC [10]: 0.39 µg/mL (≈ 1.12 µM)
MIC [11]: 12.5 µg/mL (≈ 36 µM)
MIC [12]: ≤ 0.05 µg/mL
MIC ([13]; GN918, 20 h): 1.56 µg/mL (≈ 4.49 µM)
MIC [14, 23]: 0.78 µg/mL (≈ 2.25 µM)
MIC [15]: 3.13 µg/mL (≈ 9.01 µM)
MIC ([16]; 20 h, read-out: MIC): 6.25 µg/mL (≈ 18 µM)
MIC [18, 25]: 0.39 µg/mL (≈ 1.12 µM)
